# Source: US20060112494A1, “Method of protecting an animal skin product from metalloproteinase activity” (priority 2004, published 2006)
# Where two headings read alike, the source gives them in different places.
# Experiments:
# collagenase = conditions: for Collagenase Activity/Days 1: day 1; for Collagenase Activity/Days 2: day 2; for Collagenase Activity/Days 4: day 4; for Collagenase Activity/Days 7: day 7;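 as to all read-outs here: nutrient agar containing 0.5% Azocoll with inhibitor, topped by a fresh hide piece, kept at 30 °C, collagenase from hide bacteria scored visually as clearing zone around growth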
# Description: Nutrient agar amended with 0.5% AZOCOLL was used as the test medium to study collagenase activity. The nutrient agar was prepared and autoclaved and then was cooled to 55° C. Azocol was added to give a final concentration of 0.5%. […] Fresh hides were obtained from a tannery and were cut into pieces of approximately 2 cm square. One 2×2 cm hide sample was placed on top of the agar containing the inhibitors. Treated samples were incubated at 30° C. and evaluated after 24 hours, 2 days, 3 or 4 days and 7 days for collagenase activity and also for the growth of the bacteria. The bacteria from the hides secreted collagenase into the medium as they grew to degrade the collagen in the azocoll medium and collagenase activity was determined by visual inspection of the clear zone around the bacteria
# [1] = test system: mixed bacteria on fresh hide samples; design: Growth/Days 2 / Growth/Days 4: key to the marks not given beside the values; conditions: for Growth/Days 1: day 1; for Growth/Days 2: day 2; for Growth/Days 4: day 4;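 as to all read-outs here: fresh hide pieces laid on inhibitor-containing nutrient agar supplemented with 0.5% Azocoll, incubated at 30 °C, then scored for growth of bacteria originating from the hide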
smiles,measurement,setting,value
"O=C([O-])CN(CCN(CC(=O)O)CC(=O)O)CC(=O)[O-].[Na+].[Na+] [Na2EDTA, ethylenediaminetetraacetic acid disodium salt]",Collagenase Activity/Days 1,collagenase; Conc. 0.025%,++++
same,Collagenase Activity/Days 2,collagenase; Conc. 0.025%,++++
same,Collagenase Activity/Days 4,collagenase; Conc. 0.025%,++++
same,Collagenase Activity/Days 7,collagenase; Conc. 0.025%,++++
same,Collagenase Activity/Days 1,collagenase; Conc. 0.05%,0
same,Collagenase Activity/Days 2,collagenase; Conc. 0.05%,+++
same,Collagenase Activity/Days 4,collagenase; Conc. 0.05%,++++
same,Collagenase Activity/Days 7,collagenase; Conc. 0.05%,++++
same,Collagenase Activity/Days 1,collagenase; Conc. 0.075%,+
same,Collagenase Activity/Days 2,collagenase; Conc. 0.075%,+++
same,Collagenase Activity/Days 4,collagenase; Conc. 0.075%,++++
same,Collagenase Activity/Days 7,collagenase; Conc. 0.075%,++++
same,Collagenase Activity/Days 1,collagenase; Conc. 0.1%,0
same,Collagenase Activity/Days 2,collagenase; Conc. 0.1%,+
same,Collagenase Activity/Days 4,collagenase; Conc. 0.1%,+++
same,Collagenase Activity/Days 7,collagenase; Conc. 0.1%,+++
same,Collagenase Activity/Days 1,collagenase; Conc. 0.2%,0
same,Collagenase Activity/Days 2,collagenase; Conc. 0.2%,0
same,Collagenase Activity/Days 4,collagenase; Conc. 0.2%,0
same,Collagenase Activity/Days 7,collagenase; Conc. 0.2%,+
same,Collagenase Activity/Days 1,collagenase; Conc. 0.3%,0
same,Collagenase Activity/Days 2,collagenase; Conc. 0.3%,0
same,Collagenase Activity/Days 4,collagenase; Conc. 0.3%,0
same,Collagenase Activity/Days 7,collagenase; Conc. 0.3%,+
same,Collagenase Activity/Days 1,collagenase; Conc. 0.4%,0
same,Collagenase Activity/Days 2,collagenase; Conc. 0.4%,0
same,Collagenase Activity/Days 4,collagenase; Conc. 0.4%,0
same,Collagenase Activity/Days 7,collagenase; Conc. 0.4%,0
same,Collagenase Activity/Days 1,collagenase; Conc. 0.5%,0
same,Collagenase Activity/Days 2,collagenase; Conc. 0.5%,0
same,Collagenase Activity/Days 4,collagenase; Conc. 0.5%,0
same,Collagenase Activity/Days 7,collagenase; Conc. 0.5%,0
same,Growth/Days 1,[1]; Conc. 0.025%,++++
same,Growth/Days 2,[1]; Conc. 0.025%,++++
same,Growth/Days 4,[1]; Conc. 0.025%,++++
same,Growth/Days 1,[1]; Conc. 0.05%,++++
same,Growth/Days 2,[1]; Conc. 0.05%,++++
same,Growth/Days 4,[1]; Conc. 0.05%,++++
same,Growth/Days 1,[1]; Conc. 0.075%,++++
same,Growth/Days 2,[1]; Conc. 0.075%,++++
same,Growth/Days 4,[1]; Conc. 0.075%,++++
same,Growth/Days 1,[1]; Conc. 0.1%,++
same,Growth/Days 2,[1]; Conc. 0.1%,++++
same,Growth/Days 4,[1]; Conc. 0.1%,++++
same,Growth/Days 1,[1]; Conc. 0.2%,0
same,Growth/Days 2,[1]; Conc. 0.2%,+++
same,Growth/Days 4,[1]; Conc. 0.2%,++++
same,Growth/Days 1,[1]; Conc. 0.3%,0
same,Growth/Days 2,[1]; Conc. 0.3%,+++
same,Growth/Days 4,[1]; Conc. 0.3%,++++
same,Growth/Days 1,[1]; Conc. 0.4%,0
same,Growth/Days 2,[1]; Conc. 0.4%,+++
same,Growth/Days 4,[1]; Conc. 0.4%,++++
same,Growth/Days 1,[1]; Conc. 0.5%,0
same,Growth/Days 2,[1]; Conc. 0.5%,+++
same,Growth/Days 4,[1]; Conc. 0.5%,++++
"O=C([O-])CN(CCN(CC(=O)[O-])CC(=O)O)CC(=O)[O-].[Na+].[Na+].[Na+] [Na3EDTA, ethylenediaminetetraacetic acid trisodium salt]",Collagenase Activity/Days 1,collagenase; Conc. 0.025%,++++
same,Collagenase Activity/Days 2,collagenase; Conc. 0.025%,++++
same,Collagenase Activity/Days 4,collagenase; Conc. 0.025%,++++
same,Collagenase Activity/Days 7,collagenase; Conc. 0.025%,++++
same,Collagenase Activity/Days 1,collagenase; Conc. 0.05%,++
same,Collagenase Activity/Days 2,collagenase; Conc. 0.05%,+++
same,Collagenase Activity/Days 4,collagenase; Conc. 0.05%,++++
same,Collagenase Activity/Days 7,collagenase; Conc. 0.05%,++++
same,Collagenase Activity/Days 1,collagenase; Conc. 0.075%,0
same,Collagenase Activity/Days 2,collagenase; Conc. 0.075%,+
same,Collagenase Activity/Days 4,collagenase; Conc. 0.075%,+++
same,Collagenase Activity/Days 7,collagenase; Conc. 0.075%,++++
same,Collagenase Activity/Days 1,collagenase; Conc. 0.1%,0
same,Collagenase Activity/Days 2,collagenase; Conc. 0.1%,+
same,Collagenase Activity/Days 4,collagenase; Conc. 0.1%,+++
same,Collagenase Activity/Days 7,collagenase; Conc. 0.1%,+++
same,Collagenase Activity/Days 1,collagenase; Conc. 0.2%,0
same,Collagenase Activity/Days 2,collagenase; Conc. 0.2%,0
same,Collagenase Activity/Days 4,collagenase; Conc. 0.2%,++
same,Collagenase Activity/Days 7,collagenase; Conc. 0.2%,+++
same,Collagenase Activity/Days 1,collagenase; Conc. 0.3%,0
same,Collagenase Activity/Days 2,collagenase; Conc. 0.3%,0
same,Collagenase Activity/Days 4,collagenase; Conc. 0.3%,+
same,Collagenase Activity/Days 7,collagenase; Conc. 0.3%,++
same,Collagenase Activity/Days 1,collagenase; Conc. 0.4%,0
same,Collagenase Activity/Days 2,collagenase; Conc. 0.4%,0
same,Collagenase Activity/Days 4,collagenase; Conc. 0.4%,0
same,Collagenase Activity/Days 7,collagenase; Conc. 0.4%,+
same,Collagenase Activity/Days 1,collagenase; Conc. 0.5%,0
same,Collagenase Activity/Days 2,collagenase; Conc. 0.5%,0
same,Collagenase Activity/Days 4,collagenase; Conc. 0.5%,0
same,Collagenase Activity/Days 7,collagenase; Conc. 0.5%,+
same,Growth/Days 1,[1]; Conc. 0.025%,++++
same,Growth/Days 2,[1]; Conc. 0.025%,++++
same,Growth/Days 4,[1]; Conc. 0.025%,++++
same,Growth/Days 1,[1]; Conc. 0.05%,++++
same,Growth/Days 2,[1]; Conc. 0.05%,++++
same,Growth/Days 4,[1]; Conc. 0.05%,++++
same,Growth/Days 1,[1]; Conc. 0.075%,++++
same,Growth/Days 2,[1]; Conc. 0.075%,++++
same,Growth/Days 4,[1]; Conc. 0.075%,++++
same,Growth/Days 1,[1]; Conc. 0.1%,++++
same,Growth/Days 2,[1]; Conc. 0.1%,++++
same,Growth/Days 4,[1]; Conc. 0.1%,++++
same,Growth/Days 1,[1]; Conc. 0.2%,++++
same,Growth/Days 2,[1]; Conc. 0.2%,++++
same,Growth/Days 4,[1]; Conc. 0.2%,++++
same,Growth/Days 1,[1]; Conc. 0.3%,+++
same,Growth/Days 2,[1]; Conc. 0.3%,+++
same,Growth/Days 4,[1]; Conc. 0.3%,+++
same,Growth/Days 1,[1]; Conc. 0.4%,++++
same,Growth/Days 2,[1]; Conc. 0.4%,++++
same,Growth/Days 4,[1]; Conc. 0.4%,++++
same,Growth/Days 1,[1]; Conc. 0.5%,++
same,Growth/Days 2,[1]; Conc. 0.5%,++++
same,Growth/Days 4,[1]; Conc. 0.5%,++++
"O=C([O-])CN(CCN(CC(=O)[O-])CC(=O)[O-])CC(=O)[O-].[Na+].[Na+].[Na+].[Na+] [Na4EDTA, ethylenediaminetetraacetic acid tetrasodium salt]",Collagenase Activity/Days 1,collagenase; Conc. 0.025%,++++
same,Collagenase Activity/Days 2,collagenase; Conc. 0.025%,++++
same,Collagenase Activity/Days 4,collagenase; Conc. 0.025%,++++
same,Collagenase Activity/Days 7,collagenase; Conc. 0.025%,++++
same,Collagenase Activity/Days 1,collagenase; Conc. 0.05%,++++
same,Collagenase Activity/Days 2,collagenase; Conc. 0.05%,++++
same,Collagenase Activity/Days 4,collagenase; Conc. 0.05%,++++
same,Collagenase Activity/Days 7,collagenase; Conc. 0.05%,++++
same,Collagenase Activity/Days 1,collagenase; Conc. 0.075%,+
same,Collagenase Activity/Days 2,collagenase; Conc. 0.075%,++
same,Collagenase Activity/Days 4,collagenase; Conc. 0.075%,+++
same,Collagenase Activity/Days 7,collagenase; Conc. 0.075%,++++
same,Collagenase Activity/Days 1,collagenase; Conc. 0.1%,0
same,Collagenase Activity/Days 2,collagenase; Conc. 0.1%,+
same,Collagenase Activity/Days 4,collagenase; Conc. 0.1%,++
same,Collagenase Activity/Days 7,collagenase; Conc. 0.1%,+++
same,Collagenase Activity/Days 1,collagenase; Conc. 0.2%,0
same,Collagenase Activity/Days 2,collagenase; Conc. 0.2%,+
same,Collagenase Activity/Days 4,collagenase; Conc. 0.2%,++
same,Collagenase Activity/Days 7,collagenase; Conc. 0.2%,+++
same,Collagenase Activity/Days 1,collagenase; Conc. 0.3%,0
same,Collagenase Activity/Days 2,collagenase; Conc. 0.3%,+
same,Collagenase Activity/Days 4,collagenase; Conc. 0.3%,+
same,Collagenase Activity/Days 7,collagenase; Conc. 0.3%,+++
same,Collagenase Activity/Days 1,collagenase; Conc. 0.4%,0
same,Collagenase Activity/Days 2,collagenase; Conc. 0.4%,+
same,Collagenase Activity/Days 4,collagenase; Conc. 0.4%,+
same,Collagenase Activity/Days 7,collagenase; Conc. 0.4%,+++
same,Collagenase Activity/Days 1,collagenase; Conc. 0.5%,0
same,Collagenase Activity/Days 2,collagenase; Conc. 0.5%,0
same,Collagenase Activity/Days 7,collagenase; Conc. 0.5%,++
same,Growth/Days 1,[1]; Conc. 0.025%,++++
same,Growth/Days 2,[1]; Conc. 0.025%,++++
same,Growth/Days 4,[1]; Conc. 0.025%,++++
same,Growth/Days 1,[1]; Conc. 0.05%,++++
same,Growth/Days 2,[1]; Conc. 0.05%,++++
same,Growth/Days 4,[1]; Conc. 0.05%,++++
same,Growth/Days 1,[1]; Conc. 0.075%,++++
same,Growth/Days 2,[1]; Conc. 0.075%,++++
same,Growth/Days 4,[1]; Conc. 0.075%,++++
same,Growth/Days 1,[1]; Conc. 0.1%,++++
same,Growth/Days 2,[1]; Conc. 0.1%,++++
same,Growth/Days 4,[1]; Conc. 0.1%,++++
same,Growth/Days 1,[1]; Conc. 0.2%,++++
same,Growth/Days 2,[1]; Conc. 0.2%,++++
same,Growth/Days 4,[1]; Conc. 0.2%,++++
same,Growth/Days 1,[1]; Conc. 0.3%,++++
same,Growth/Days 2,[1]; Conc. 0.3%,++++
same,Growth/Days 4,[1]; Conc. 0.3%,++++
same,Growth/Days 1,[1]; Conc. 0.4%,++++
same,Growth/Days 2,[1]; Conc. 0.4%,++++
same,Growth/Days 4,[1]; Conc. 0.4%,++++
same,Growth/Days 1,[1]; Conc. 0.5%,++++
same,Growth/Days 2,[1]; Conc. 0.5%,++++
same,Growth/Days 4,[1]; Conc. 0.5%,++++
